Measurements from paper PMC7440915, “Discovery of surrogate agonists for visceral fat Treg cells that modulate metabolic indices in vivo” (eLife, 2020).
Where no end group is shown, it is not given here.

Tested on: HFD-fed B6.CD45.1^+ mice
Experiment: Metabolic indices (ITT, GTT, fasting insulin, body weight) in HFD-fed mice after vTreg53 Treg transfer and immunization
Format: in vivo, mouse
Conditions: n ≥ 7
From the text: Figure 7. Immunization with Fat1562 following vTreg53 Treg transfer ameliorates HFD-induced insulin resistance. (A–F) Metabolic indices of mice treated as in Figure 6A (n ≥ 7). (A) Body weight. (B) Insulin tolerance test (ITT). (C) Area over curve for ITT analysis. (D) Glucose tolerance test (GTT). (E) Area under curve for GTT analysis. (F) Plasma insulin levels after 6 hr of fasting. Data shown are representative of at least two independent experiments. (G) Scheme of the anti-TNFα experiment. (H) Number of total Treg cells in VAT (n ≥ 5). (I) Number of CD11c^hi inflammatory macrophages in VAT (n ≥ 5). (J) ITT (n ≥ 5). (K) Area over curve for ITT analysis (n ≥ 5). Data are mean ± SD. Figure 7—figure supplement 1. Absolute blood glucose levels. ITT analysis of mice transferred with vTreg53 TCR-tg Tregs and immunized with adjuvant/Fat1562 or adjuvant alone. Data shown are representative of at least two independent experiments (n ≥ 5). [drawing 7]
To assess early Treg proliferation following peptide stimulation in vivo, 0.4 million Treg cells were sorted from pooled Spl and LNs of 6-8wk-old male CD45.2^+ Tg^+ Foxp3-GFP^KI/y mice by Moflo, labeled by the CellTrace Violet dye (ThermoFisher Scientific), and were i.v.-injected into 6-8wk old male B6.CD45.1^+ mice. The next day, the recipient mice were injected with 200 µg peptides emulsified in CFA (CFA/peptides) s.c. on the lower back. Proliferation of clonotype^+ Tregs in the spleen was determined three days later. To examine the expansion of VAT-Treg cells by peptide immunization, we sorted 0.4 million Treg cells from pooled Spl/LNs of 6-8wk-old male CD45.2^+ Tg^+ Foxp3-GFP^KI/y mice and transferred them i.v. into 6-8wk old male B6.CD45.1^+ mice. Six weeks later, the recipient mice were immunized with 200 µg CFA/peptides s.c. on the lower back, and one week later were boosted with 100 μg IFA/peptides i.p. After another week, clonotype^+ CD45.2^+ Treg cells from the Spl/LNs or VAT of recipient mice were analyzed by flow cytometry and double-sorted for ultra-low-input RNA-seq. […] One week after the IFA/peptides injection, metabolic parameters (GTT, ITT, fasting plasma insulin levels) and the composition of different immunocytes were determined.
For GTT, mice were fasted for 15 hr overnight, weighed, and tested for fasting blood-glucose concentrations. […] Blood-glucose levels were measured before and 20, 40, 60, 90, and 120 min after glucose injection. […] Blood-glucose levels were measured before and 20, 40, 60, 90, and 120 min after insulin injection, and were normalized to the blood-glucose levels before insulin injection. The area under the curve (for GTT) or area over the curve (for ITT) were calculated using GraphPad Prism 7.0.

Sequence: TMYKNPRPMAATG [Fat1562]
- glucose tolerance (GTT, 2.0 g glucose per kg i.p., 15 hr fast): promoted glucose tolerance
- insulin sensitivity (ITT, 0.6 U insulin per kg i.p., 6 hr fast): improved systemic insulin sensitivity
- body weight (adjuvant/Fat1562 vs adjuvant alone): similar
- fasting plasma insulin levels (after 6 hr of fasting): reduced fasting plasma insulin levels
